target: T1, human ERK-2 (Mitogen Activated Kinase 1) (Homo sapiens, UniProt P28482); assay: ERK-2 Enzymatic Assay; assay type: biochemical; settings: ERK-2 enzymatic assay; read-out: IC50
T1 construct: n-terminal 6-His fusion protein in E. coli and corresponding to aa 8-360; 6-His (N); made in house; host or cells: E. coli
Source text: Table 1 contains representative data for Examples disclosed herein.

T1 sequence (P28482 8-360): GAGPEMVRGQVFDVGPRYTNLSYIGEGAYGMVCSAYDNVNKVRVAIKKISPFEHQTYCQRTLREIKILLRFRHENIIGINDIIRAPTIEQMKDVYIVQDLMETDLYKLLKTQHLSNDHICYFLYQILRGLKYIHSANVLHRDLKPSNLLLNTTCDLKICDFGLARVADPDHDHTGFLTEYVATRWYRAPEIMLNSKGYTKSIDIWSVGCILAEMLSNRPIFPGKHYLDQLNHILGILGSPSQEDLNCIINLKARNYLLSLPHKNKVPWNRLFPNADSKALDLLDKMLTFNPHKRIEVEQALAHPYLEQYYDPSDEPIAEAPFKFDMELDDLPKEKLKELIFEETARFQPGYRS

For `Cn1nccc1Nc1nccc(-c2ccc3c(c2)nnn3CC2(c3ccc(OC(F)(F)F)cc3)CC2)n1` [Example 47, N-(1-methyl-1H-pyrazol-5-yl)-4-(1-((1-(4-(trifluoromethoxy)phenyl)cyclopropyl)methyl)-1H-benzo[d][1,2,3]triazol-5-yl)pyrimidin-2-amine], which IC50 is on record?
The IC50 was < 100 nM.

Which IC50 does the source give for `COc1cccc(F)c1CN1C[C@H](n2nnc3cc(-c4ccnc(Nc5ccnn5C)n4)ccc32)CC(F)(F)C1` [Example 106, (R)-4-(1-(5,5-difluoro-1-(2-fluoro-6-methoxybenzyl)piperidin-3-yl)-1H-benzo[d][1,2,3]triazol-5-yl)-N-(1-methyl-1H-pyrazol-5-yl)pyrimidin-2-amine] here?
The IC50 was < 100 nM.

How did the IC50 turn out when `COc1cccc(F)c1CN1CCC[C@@H](n2nnc3cc(-c4ccnc(Nc5ccnn5C)n4)ccc32)C1` [Example 105, (R)-4-(1-(1-(2-fluoro-6-methoxybenzyl)piperidin-3-yl)-1H-benzo[d][1,2,3]triazol-5-yl)-N-(1-methyl-1H-pyrazol-5-yl)pyrimidin-2-amine] was run?
The IC50 was < 100 nM.

`CC(C)Cn1nnc2cc(-c3ccnc(Nc4cnn(C)c4)n3)ccc21` [Example 97, 4-(1-isobutyl-1H-benzo[d][1,2,3]triazol-5-yl)-N-(1-methyl-1H-pyrazol-4-yl)pyrimidin-2-amine] was tested. Which IC50 did it give?
The IC50 was < 100 nM.

How did the IC50 turn out when `COc1ccc(Cn2nnc3cc(-c4ccnc(NC[C@@H](O)CO)n4)ccc32)cc1F` [Example 20, (R)-3-((4-(1-(3-fluoro-4-methoxybenzyl)-1H-benzo[d][1,2,3]triazol-5-yl)pyrimidin-2-yl)amino)propane-1,2-diol] was run?
The IC50 was < 100 nM.

With `Cn1nccc1Nc1nccc(-c2ccc3c(c2)nnn3CC(F)F)n1` [Example 37, 4-(1-(2,2-difluoroethyl)-1H-benzo[d][1,2,3]triazol-5-yl)-N-(1-methyl-1H-pyrazol-5-yl)pyrimidin-2-amine] as the molecule, how does the IC50 read?
Its IC50 is < 100 nM.

`Cn1nccc1Nc1nccc(-c2ccc3c(c2)nnn3CCc2cccc(Cl)c2)n1` [Example 50, 4-(1-(3-chlorophenethyl)-1H-benzo[d][1,2,3]triazol-5-yl)-N-(1-methyl-1H-pyrazol-5-yl)pyrimidin-2-amine] was tested. Which IC50 did it give?
Its IC50 is < 100 nM.

Which IC50 does the source give for `Cn1nccc1Nc1nccc(-c2cnc3c(c2)nnn3CCc2cccc(Cl)c2)n1` [Example 118, 4-(3-(3-chlorophenethyl)-3H-[1,2,3]triazolo[4,5-b]pyridin-6-yl)-N-(1-methyl-1H-pyrazol-5-yl)pyrimidin-2-amine] here?
The IC50 was < 100 nM.

With `COc1ccc(Cn2nnc3cc(-c4ccnc(NC5CCOCC5)n4)ccc32)cc1F` [Example 110, 4-(1-(3-fluoro-4-methoxybenzyl)-1H-benzo[d][1,2,3]triazol-5-yl)-N-(tetrahydro-2H-pyran-4-yl)pyrimidin-2-amine] as the molecule, how does the IC50 read?
The IC50 was < 100 nM.

Which IC50 does the source give for `CC(O)CCn1nnc2cc(-c3ccnc(Nc4ccnn4C)n3)ccc21` (centres unmarked) [Example 41, 4-(5-(2-((1-methyl-1H-pyrazol-5-yl)amino)pyrimidin-4-yl)-1H-benzo[d][1,2,3]triazol-1-yl)butan-2-ol] here?
The IC50 was < 100 nM.

For `COc1ccc(Cn2nnc3cc(-c4ccnc(Nc5nnn(C)n5)n4)ccc32)cc1F` [Example 26, 4-(1-(3-fluoro-4-methoxybenzyl)-1H-benzoyl[d][1,2,3]triazol-5-yl)-N-(2-methyl-2H-tetrazol-5-yl)pyrimidin-2-amine], which IC50 is on record?
The IC50 was < 100 nM.

With `CC(C)Cn1nnc2cc(-c3ccnc(Nc4ccnn4C)n3)ccc21` [Example 38, 4-(1-isobutyl-1H-benzo[d][1,2,3]triazol-5-yl)-N-(1-methyl-1H-pyrazol-5-yl)pyrimidin-2-amine] as the molecule, how does the IC50 read?
Its IC50 is < 100 nM.

`COc1ccc(Cn2nnc3cc(-c4ccnc(NC5CCC5)n4)ccc32)cc1F` [Example 12, N-cyclobutyl-4-(1-(3-fluoro-4-methoxybenzyl)-1H-benzo[d][1,2,3]triazol-5-yl)pyrimidin-2-amine] was tested. Which IC50 did it give?
Its IC50 is < 100 nM.

Which IC50 does the source give for `Fc1ccc(Cn2nnc3cc(-c4ccnc(NC5CCOCC5)n4)ccc32)cc1` [Example 111, 4-(1-(4-fluorobenzyl)-1H-benzo[d][1,2,3]triazol-5-yl)-N-(tetrahydro-2H-pyran-4-yl)pyrimidin-2-amine] here?
Its IC50 is < 100 nM.

For `CCC(C)Cn1nnc2cc(-c3ccnc(Nc4cnn(C)n4)n3)ccc21` (centres unmarked) [Example 100, N-(2-methyl-2H-1,2,3-triazol-4-yl)-4-(1-(2-methylbutyl)-1H-benzo[d][1,2,3]triazol-5-yl)pyrimidin-2-amine], which IC50 is on record?
Its IC50 is < 100 nM.

How did the IC50 turn out when `COc1ccc(Cn2nnc3cc(-c4ccnc(Nc5ccnn5C)n4)ccc32)cc1F` [Example 113, 4-(1-(3-fluoro-4-methoxybenzyl)-1H-benzol[d][1,2,3]triazol-5-yl)-N-(1-methyl-1H-pyrazol-5-yl)pyrimidin-2-amine] was run?
Its IC50 is < 100 nM.

How did the IC50 turn out when `CCN1C[C@@H](n2nnc3cc(-c4ccnc(Nc5ccnn5C)n4)ccc32)[C@H](c2ccc(F)c(F)c2)C1` [Example 77, 4-(1-((3S,4R)-4-(3,4-difluorophenyl)-1-ethylpyrrolidin-3-yl)-1H-benzo[d][1,2,3]triazol-5-yl)-N-(1-methyl-1H-pyrazol-5-yl)pyrimidin-2-amine] was run?
Its IC50 is < 100 nM.

Which IC50 does the source give for `COCCCn1nnc2cc(-c3ccnc(Nc4ccnn4C)n3)ccc21` [Example 42, 4-(1-(3-methoxypropyl)-1H-benzo[d][1,2,3]triazol-5-yl)-N-(1-methyl-1H-pyrazol-5-yl)pyrimidin-2-amine] here?
Its IC50 is < 100 nM.

`Cn1nccc1Nc1nccc(-c2ccc3c(c2)nnn3CC2CN(C(=O)OC(C)(C)C)C2)n1` [Example 63, tert-butyl 3-((5-(2-((1-methyl-1H-pyrazol-5-yl)amino)pyrimidin-4-yl)-1H-benzo[d][1,2,3]triazol-1-yl)methyl)azetidine-1-carboxylate] was tested. Which IC50 did it give?
Its IC50 is < 100 nM.

With `COc1ccc(Cn2nnc3cc(-c4ccnc(N[C@@H](C)CO)n4)ccc32)cc1F` [Example 19, (S)-2-((4-(1-(3-fluoro-4-methoxybenzyl)-1H-benzo[d][1,2,3]triazol-5-yl)pyrimidin-2-yl)amino)propan-1-ol] as the molecule, how does the IC50 read?
The IC50 was < 100 nM.

Which IC50 does the source give for `Cn1nccc1Nc1nccc(-c2ccc3c(c2)nnn3CC(C)(F)F)n1` [Example 31, 4-(1-(2,2-difluoropropyl)-1H-benzo[d][1,2,3]triazol-5-yl)-N-(1-methyl-1H-pyrazol-5-yl)pyrimidin-2-amine] here?
Its IC50 is < 100 nM.

How did the IC50 turn out when `CN1CC(Cn2nnc3cc(-c4ccnc(Nc5ccnn5C)n4)ccc32)C1` [Example 36, N-(1-methyl-1H-pyrazol-5-yl)-4-(1-((1-methylazetidin-3-yl)methyl)-1H-benzo[d][1,2,3]triazol-5-yl)pyrimidin-2-amine] was run?
The IC50 was < 100 nM.

`COc1ccc(Cn2nnc3cc(-c4ccnc(Nc5ccnn5C)n4)ccc32)cc1` [Example 65, 4-(1-(4-methoxybenzyl)-1H-benzo[d][1,2,3]triazol-5-yl)-N-(1-methyl-1H-pyrazol-5-yl)pyrimidin-2-amine] was tested. Which IC50 did it give?
The IC50 was < 100 nM.

How did the IC50 turn out when `COc1ccc(Cn2nnc3cc(-c4ccnc(Nc5nnc(C)s5)n4)ccc32)cc1F` [Example 11, N-(4-(1-(3-fluoro-4-methoxybenzyl)-1H-benzol[d][1,2,3]triazol-5-yl)pyrimidin-2-yl)-5-methyl-1,3,4-thiadiazol-2-amine] was run?
Its IC50 is < 100 nM.

Which IC50 does the source give for `CCC(C)Cn1nnc2cc(-c3ccnc(N[C@@H](C)CO)n3)ccc21` (stereo partly drawn) [Example 98, (2S)2-((4-(1-(2-methylbutyl)-1H-benzo[d][1,2,3]triazol-5-yl)pyrimidin-2-yl)amino)propan-1-ol] here?
The IC50 was < 100 nM.

`CC(C)N1CC(n2nnc3cc(-c4ccnc(Nc5ccnn5C)n4)ccc32)[C@H](c2cc(F)cc(F)c2)C1` (some centres unmarked) [Example 80] was tested. Which IC50 did it give?
The IC50 was < 100 nM.

For `CN1CC(n2nnc3cc(-c4ccnc(Nc5cnn(C)c5)n4)ccc32)[C@H](c2ccc(F)cc2F)C1` (stereo partly drawn) [Example 73, 4-(1-((3S,4R)-4-(2,4-difluorophenyl)-1-methylpyrrolidin-3-yl)-1H-benzo[d][1,2,3]triazol-5-yl)-N(1-methyl-1H-pyrazol-4-yl)pyrimidin-2-amine], which IC50 is on record?
Its IC50 is < 100 nM.

`Cn1nccc1Nc1nccc(-c2ccc3c(c2)nnn3C2CCc3cc(Cl)ccc32)n1` (centres unmarked) [Example 59, 4-(1-(5-chloro-2,3-dihydro-1H-inden-1-yl)-1H-benzo[d][1,2,3]triazol-5-yl)-N-(1-methyl-1H-pyrazol-5-yl)pyrimidin-2-amine] was tested. Which IC50 did it give?
The IC50 was < 100 nM.

For `Cn1nccc1Nc1nccc(-c2ccc3c(c2)nnn3CC(C)(C)O)n1` [Example 60, 2-methyl-1-(5-(2-((1-methyl-1H-pyrazol-5-yl)amino)pyrimidin-4-yl)-1H-benzo[d][1,2,3]triazol-1-yl)propan-2-ol], which IC50 is on record?
Its IC50 is < 100 nM.

With `Cn1nccc1Nc1nccc(-c2ccc3c(c2)nnn3C2CNCCC2c2ccc(F)cc2)n1` (centres unmarked) [Example 90, 4-(1-(4-(4-fluorophenyl)piperidin-3-yl)-1H-benzo[d][1,2,3]triazol-5-yl)-N-(1-methyl-1H-pyrazol-5-yl)pyrimidin-2-amine] as the molecule, how does the IC50 read?
Its IC50 is < 100 nM.

How did the IC50 turn out when `COc1ccc([C@@H](CO)n2nnc3cc(-c4ccnc(Nc5ccnn5C)n4)ccc32)cc1F` [Example 95, (S)-2-(3-fluoro-4-methoxyphenyl)-2-(5-(2-((1-methyl-1H-pyrazol-5-yl)amino)pyrimidin-4-yl)-1H-benzo[d][1,2,3]triazol-1-yl)ethanol] was run?
Its IC50 is < 100 nM.

With `CC(C)Cn1nnc2cc(-c3ccnc(Nc4cnn(C)n4)n3)ccc21` [Example 99, 4-(1-isobutyl-1H-benzo[d][1,2,3]triazol-5-yl)-N-(2-methyl-2H-1,2,3-triazol-4-yl)pyrimidin-2-amine] as the molecule, how does the IC50 read?
The IC50 was < 100 nM.

`COc1ccc(Cn2nnc3cc(-c4ccnc(NCC(C)(C)CO)n4)ccc32)cc1F` [Example 16] was tested. Which IC50 did it give?
The IC50 was < 100 nM.

How did the IC50 turn out when `COc1ncccc1Cn1nnc2cc(-c3ccnc(Nc4ccnn4C)n3)ccc21` [Example 67, 4-(1-((2-methoxypyridin-3-yl)methyl)-1H-benzo[d][1,2,3]triazol-5-yl)-N-(1-methyl-1H-pyrazol-5-yl)pyrimidin-2-amine] was run?
The IC50 was < 100 nM.

For `COc1ccc(Cn2nnc3cc(-c4ccnc(Nc5cnn(C)n5)n4)ccc32)cc1F` [Example 9, 4-(1-(3-fluoro-4-methoxybenzyl)-1H-benzo[d][1,2,3]triazol-5-yl)-N-(2-methyl-2H-1,2,3-triazol-4-yl)pyrimidin-2-amine], which IC50 is on record?
The IC50 was < 100 nM.

Source: patent US9763942B2, “Serine/threonine kinase inhibitors” (Array BioPharma Inc., priority 2013, dated 2017)
